Test results from US8217071B2, “Use of inhibitors of the degradation of p27, in particular Argyrin and derivatives thereof, for the treatment of proliferative diseases” (Helmholtz Zentrum für Infektionsforschung GmbH, priority 2007, dated 2012).
Converted amounts (≈) assume the structure as drawn. Numbered stars: 1 amine (or outer) side, 2 acyl side, 3 side chain; on linkers, the order of the positions; unused ones are H or OH. Square brackets hold non-standard residues; d marks the D form. Peptide text beside a SMILES is read from it. dAla(ψthiazole) = C[C@@H](N[*:1])c1nc(C(=O)[*:2])cs1; Trp(4-OMe) = COc1cccc2[nH]cc(C[C@H](N)C(=O)O)c12; Dha = C=C(N)C(=O)O; Sar = CNCC(=O)O

Assays:
[1] = system: HUVEC; assay: In vitro capillary-like tube structure formation on matrigel; format: cell-based, human
Text: The inventors then asked whether Argyrin A was also able to prevent the formation of capillary like tube structures formed by HUVEC on matrigel, an assay frequently used to test the ability of a compound to interfere with neovascularization. […] The addition of Argyrin A led to a 40% reduction in tube formation in this assay. Importantly transfection of siRNA against p27 protected endothelial cells against the inhibitory activity of Argyrin A. The effects exerted by Bortezomib in this assay were smaller and not rescued by loss of p27. In addition to tube length the inventors also quantitated the number of blood vessel like structures formed by HUVECS after treatment with Argyrin A or bortezomib (FIG. 4F).
Treatment with Argyrin A or bortezomib was started when these tumours reached a volume of 200 mm3. […] (n=8 Argyrin A, n=8 Bortezomib, n=6 PBS/EtOH) b) The pictures show the macroscopic appearance of a xenotransplant tumour after 10 days of treatment with Argyrin A. Note the large necrotic centre of the explanted tumour. c) After a single injection of Argyrin A (0.15 mg/kg bodyweight) or bortezomib (1.0 mg/kg bodyweight) tumours were explanted at the indicated time points and blood vessels in the tumour tissue were co-stained for CD31 and p27. […] Note the swelling of the endothelial cell (“E”) and the occlusion of the lumen (“L”) by erythrocytes after 90 minutes of Argyrin A treatment. The arrow marks the detachment of endothelial cells after 48 h of Argyrin A treatment. […] Tube length (f) and blood vessel like […] structures were determined using photographs of HUVEC cultures. The micrographs show representative examples of HUVEC cultures under the indicated conditions.
Primary microvascular endothelial cells (HMVEC) were isolated from human foreskin. The cells were kept at 37° C. and 10% CO2 in EGM-2 MV from Cambrex which includes the basal medium (EBM-2), FBS, hydrocortisone, hFGF-B, VEGF, R3-IGF, ascorbic acid, hEGF, gentamicin and amphotericin. The effect of argyrin A or bortezomib on in vitro angiogenesis was determined by matrigel capillary-like tube structure formation assay. To examine the effect of the different compounds on in vitro angiogenesis, HMVECs were seeded in 96-well culture plates precoated with Matrigel (BD Biosciences, #354248) and exposed to argyrin A or bortezomib. Enclosed networks of tube structures from three randomly chosen fields were scored under the microscope (Leica, Cambridge, United Kingdom). Pictures were taken with an Axio Vision 3.1 Zeiss camera and scored by determining tube length and the formation of closed vessel like structures.

[2] = system: SW-480 (colon cancer); assay: MIC (visual), serial dilution, SW-480; format: cell-based, human; conditions: minimal concentration of a serial dilution exhibiting a visual effect
Text: (§1) The following table summarizes the effects of argyrin-derivatives A to H on two cancer cell lines, H15 (cervix carcinoma) and SW-480 (colon cancer). In order to test the efficacy, a p27-GFP-clone was used.

[3] = biological target: T1, purified human 20S proteasome (Homo sapiens, UniProt P28072+P28074+Q99436); assay: Proteasome assay with purified 20S proteasome, fluorogenic peptide substrates; format: biochemical; conditions: purified human erythrocyte derived 20S proteasome
T1 construct: using erythrocyte-derived 20S proteasome (Biomol International, #LP PW8720); purchased Biomol International #LP PW8720; host or cells: human erythrocytes
Method: (§2) The expression levels of p27^kip1 were determined at the indicated timepoints by western blotting and normalized against actin expression which was used as an internal control.
Proteasome assays with purified 20S proteasome were performed as previously described (Lightcap, E. S. et al. Proteasome inhibition measurements: clinical application. Clin Chem 46, 673-83 (2000)) using erythrocyte-derived 20S proteasome (Biomol International, #LP PW8720) and fluorometric substrates Succ-LLVY-AMC, BZ-VGR-AMC and Z-Lle-AMC (Biomol International, LP PW9905) as probes according to the manufacturers instructions. Proteasome extraction from cells and tumour sections was done as previously described (Crawford, L. J. et al. Comparative selectivity and specificity of the proteasome inhibitors BzLLLCOCHO, PS-341, and MG-132. Cancer Res 66, 6379-86 (2006)). Briefly cells (MEF or MCF-7) or tissue sample homogenate (tumour sections) were re-suspended in 1 mL ATP/DTT lysis buffer (10 mmol/L Tris-HCl (pH 7.8), 5 mmol/L ATP, 0.5 mmol/L DTT, 5 mmol/L MgCl2), and incubated on ice for 10 minutes, followed by sonication for 15 seconds. […] Protein concentration of the samples was measured using a coomassie protein assay (Pierce, Rockford, Ill.).

[4] = system: primary human fibroblasts; assay: Flow cytometry cell cycle / sub-G1 analysis; format: cell-based; conditions: at ranges of IC50
Method: as §2
(§3) MTT assays were done as previously described (Sasse, F. et al. Argyrins, immunosuppressive cyclic peptides from myxobacteria. I. Production, isolation, physico-chemical and biological properties. J Antibiot (Tokyo) 55, 543-51 (2002)). TUNEL staining of tissue sections was performed on 10 micrometer sections which were deparafinised and treated as recommended by the manufacturer. (In Situ Cell Death Detection Kit, Fluorescein; ROCHE, Cat #11 684 795 910). Flow cytometric analysis of cultured cells was done using a Becton Dickinson fluorescence cytometer as previously described (Malek, N. P. et al. A mouse knock-in model exposes sequential proteolytic pathways that regulate p27^Kip1 in G1 and S phase. Nature 413, 323-7 (2001)). Analysis of the distribution of cells in the cell cycle and the sub-G1 fraction was done using Cell Quest software. A histone-associated-DNA-fragments ELISA was used to determine the number of apoptotic cells according to manufacturers instructions (Roche #11 774425001).

[5] = system: SW-480 (colon cancer cell line); assay: MTT-test proliferation of SW-480; format: cell-based, human; conditions: half-maximal inhibition of proliferation
Method: as §3

[6] = system: p27^kip1; assay: p27^kip1 half life in cycloheximide treated cells; format: cell-based, human; conditions: HeLa and SW480 cells, cycloheximide 25 μg/mL
Method: The inventors therefore conclude that Argyrin A prevents the degradation of p27 due to its proteasome inhibitory activity in vivo and induces apoptosis or G1 arrest in a variety of different tumour cell lines.
as §2

[7] = system: p27-GFP (clone H15GFP-p27, HeLa-cell line; cervix-carcinoma); assay: GFP-fluorescence per FACS in clone H15GFP-p27; format: cell-based, human; conditions: GFP-fluorescence per FACS after 24 h incubation, 500 ng/ml
Text: Human p27cDNA (in plasmid vector CS2+) was digested with EcoR1 and BamH1, and the resulting fragment was ligated after gel purification into the vector pEGFP-N1 (Clontech) that was cut with the same restriction enzymes. Thus, a […] fusion with the GFP as contained in the pEGFP-vector was generated. The plasmid was then transfected into Hela cells, and, following selection of the cells with kanamycin, cellular clones were isolated which had the plasmid integrated stably into their chromosome. The expression of the p27EGFP proteins was confirmed using Western blots and immune precipitations for both p27 and GFP.
as §1

[8] = Argyrin A 1 μM, bortezomib 10 nM

Compound | number of blood vessel like structures [1, 8] | reduction in tube formation (relative length of capillary tubes) ([1]; VEGF stimulation, Argyrin A 1 μM) [%] | MIC (visual) SW-480 [2] [µg/mL] | caspase, trypsin and chymotrypsin like proteasome activities [3] | cellular phenotype [4] | IC-50 SW-480 [5] | p27 turnover [6] | Mean of FSC-H (Log) H15 p27-GFP-clone [7] | effect on tube formation compared with Argyrin A ([1]; bortezomib 10 nM)
C=C1NC(=O)[C@@H](C)NC(=O)CNC(=O)[C@H](Cc2c[nH]c3cccc(OC)c23)NC(=O)[C@H](Cc2c[nH]c3ccccc23)NC(=O)c2csc(n2)[C@@H](C)NC(=O)CN(C)C1=O [Argyrin A] (cyclo(W[Trp(4-OMe)]G[dA][Dha][Sar][dAla(ψthiazole)])) | significant reduction | 40 | 4 (≈ 4.85 µM) | dose dependent inhibition | stopped to proliferate | Ca. 0.05 μg/ml | complete block | 8.52 | 
CC(C)C[C@H](NC(=O)[C@H](Cc1ccccc1)NC(=O)c1cnccn1)B(O)O [bortezomib, reference compound] | significant reduction |  |  |  |  |  |  |  | smaller
